Data set [1] concerns telomeres. In words: Telomere length assay (real-time PCR). It is filed as cell-based, human. Here is the method: Genomic DNA was extracted from cells and the average telomere length was assessed by a modified method of the real-time PCR-based telomere assay described previously (Cawthon et al., Nucleic Acids Res. 30: e47, 2002; Cawthon, Nucleic Acids Res. 37: e21, 2009). Briefly, the telomere repeat copy number to single gene copy number (T/S) ratio was determined using a Bio-Rad IQ5 thermocycler. Genomic DNA (5 ng) was subjected to PCR reactions and detected with SYBR Green Super Mix (Bio-Rad). The primers for telomere length and HBG1 (a single copy gene) were as follows. Reaction conditions were: 1 cycle, 95° C., 5 minutes; 41 cycles, 95° C., 15 seconds,; 1 cycle, 60° C. for 45 seconds. All reactions were carried out in triplicate and compared to a standard curve of 0, 0.2, 1, 5, 25 and 125 ng genomic DNA (telomere length 10.4 kb) from Roche Telo-kit. The T/S ratio (dCt) for each sample was calculated by normalizing the average HBG Ct value to the average telomere Ct value.
In general terms: Real-time PCR tracks product formation cycle by cycle.

The test system of data set [2] is human vaginal keratinocytes (HVK). In words: Long-term culture / immortalization of primary human vaginal keratinocytes on feeder cells. The conditions noted are these: 10 μM Y-27632; FIG. 9. It counts as cell-based. Here is the method:
The HPV18 cell line was established by introducing the HPV18 genome into primary HFKs using the Amaxa human keratinocyte nucleofection system. Primary human cervical keratinocytes (HCKs), human vaginal keratinocytes (HVKs), the HPV18 cell lines and the HPV31 positive cell line (CIN-612 9E) were grown in the presence or absence of 10 μM Y-27632 (Alexis Biochemicals), as indicated. Cells were subcultured by removing the fibroblast feeder cells with versene and keratinocytes were collected by trypsinization. At each pass, 2×10^5 cells were plated on a 10 cm plate of J2 feeder cells. Population doubling was calculated as: PD=3.32(log(# cells harvested/# cells seeded)). Immunodetection

The test system of data set [3] is foreskin keratinocyte line (strain a). In words: Karyotype analysis of immortalized cells. It is filed as cell-based, human. Conditions: HFK strain a, 95 passages in Y-27632. Here is the method:
This was conducted by Molecular Diagnostic Services, Inc. San Diego, Calif. Metaphase spreads were prepared and stained to observe chromosomal G bands.
Twenty metaphase spreads of each cell line was analyzed and five complete karyotypes were prepared from each.

In data set [4] the test system is HPV16. In words: HPV16 genome copy number in W12 cells. It counts as cell-based, human papillomavirus. Conditions: 10 μM Y-27632, FIG. 8. Here is the method: The 9E and W12 (20863 clone) cell lines were cultured in F-media on irradiated J2 feeder cells. For the Y-27632 experiments they were cultured in F-medium with or without 10 μM Y-27632 and continually passed for the times indicated.
Cloned viral genomes were cleaved with restriction enzymes to separate viral and vector sequences. The genomes were religated at a concentration of 5 μg/ml to favor intramolecular circularization. Prior to electroporation, J2 feeder cells were removed from the keratinocytes by versene treatment and the HFKs were collected by trypsinization. HFKs (1×10^6) were electroporated with 2 μg of re-circularized viral genomic DNA using the Amaxa Nucleofector II electroporator and the Human Keratinocyte Nucleofector Kit. The Amaxa program optimized for cell survival was used according to the manufacturer's specifications. Cells were removed from the cuvettes immediately following electroporation, and seeded onto 10 cm plates containing irradiated feeder cells and F-medium, in the presence or absence of 10 μM Y-27632, as indicated. At various times post-transfection, low molecular weight DNA was isolated by a modified Hirt extraction procedure (Ustav et al., EMBO J. 10:449-457, 1991). For Southern blot analysis, the isolated DNA was linearized with EcoRI or BamHI, depending on cloning site for each viral genome, and DpnI, to digest any unreplicated input DNA. […]

For data set [5], the system named is hTERT mRNA. In words: Real time QRT-PCR of hTERT mRNA. It counts as cell-based, human. Here is the method: Total cellular RNA was isolated with TRIZol™ reagent (Invitrogen, Carlsbad, Calif.) and treated with DNA-free kit (Ambion, Austin, Tex.). First-strand cDNA was synthesized from 8 μg of total cellular RNA using the Superscript III First-Strand Synthesis System (Invitrogen, Carlsbad, Calif.). RNase H-treated cDNA from 20 ng RNA was amplified by quantitative real time PCR using the Taqman Gene Expression Assay for hTERT (Assay ID: Hs00972646_m1, Applied Biosystems) spanning exons 14 and 15 and human RPLP0 (large ribosomal protein) endogenous control, VIC/MGB Probe, primer limited (Applied Biosystems). All samples were run in triplicate using the ABI 7900HT system and the amount of product was calculated with reference to standard curves generated by 4-fold serial dilutions of a mixed set of cDNAs with high telomerase expression. Values were adjusted relative to the level of RPO transcripts.

The test system of data set [6] is p16^INK4a. In words: Immunodetection of p16INK4a. It counts as cell-based, human. Here is the method:
Proteins were extracted in 2% sodium dodecyl sulfate (SDS), 50 mM Tris-HCl (pH 6.8), 10% glycerol supplemented with inhibitors Complete and PhosphoSTOP (Roche, Indianapolis, Ind.). Protein samples were resolved on NuPage gels, electrotransferred to Immobilon-P membrane (Millipore, Billerica, Mass.), and probed with the relevant antibodies before detection by chemiluminescence. Monoclonal antibody against p53 (DO-1) was obtained from Santa Cruz Biotechnology (Santa Cruz, Calif.). Monoclonal antibody against α-tubulin (B-5-1-2) was obtained from Sigma-Aldrich. Polyclonal antibodies against Myc (N-262), p21 (C-19), and p16 (C-20) were obtained from Santa Cruz Biotechnology.

Consider `CC(N)[C@H]1CC[C@H](C(=O)Nc2ccncc2)CC1` (single isomer, unassigned; (+)) [Y-27632, (+)-trans-N-(4-Pyridyl)-4-(1-aminoethyl)-cyclohexanecarboxamide], for which the “relative length of telomeres” value in data set [1] (passage 50 to 120) is “became stable”; in data set [1] (with passage in Y-27632, FIG. 11B), “became progressively shorter with passage”. The bypass of senescence entry in data set [2] is reported as “efficiently bypassed senescence with no observed decline in growth rate”. Besides, in data set [2], the cellular proliferation result is on record as “dramatic increase in cellular proliferation”. In addition, in data set [3], the “karyotype of immortalized cells” value was “identical to that of the donor cells”. Further, the HPV16 copy number result in data set [4] is recorded as “partially rescued the decline in copy number”. Further, the “level of hTERT mRNA versus HPV18-immortalized keratinocytes” value in data set [5] (by passage 34 in Y-27632) is recorded as “comparable to those in HPV18-immortalized keratinocytes”. The “level of hTERT mRNA” value in data set [5] (foreskin keratinocytes with passage in Y-27632, FIG. 11A) was “increased with passage”. The “p16^INK4a levels” value in data set [6] (HPV immortalized cells) is reported as “no effect”. The “p16^INK4a mRNA and protein expression” value in data set [6] (after long-term culture with Y-27632, FIG. 12A) is listed as “still observed, albeit at a low level”.

The record behind these values is US8637310B2, “Use of a rock inhibitor to sustain primary human keratinocytes in a proliferative state” (The United States of America, as represented by the …, priority 2008, dated 2014).
